In test [1] the target is Ras GEF SOS (Son of Sevenless) (Homo sapiens, UniProt Q07889). As to the kind of experiment: SOS-mediated nucleotide exchange on Ras (BODIPY-GDP fluorescence). It is filed as biochemical. Conditions: SOS-mediated exchange of BODIPY-GDP for GTP on Ras. The gist of the method:
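Exchange rates were taken from single-exponential fits of the fluorescence time course as BODIPY-GDP on Ras was replaced by GTP. Compound went in first, then GTP and SOS. Mean rates plotted against concentration gave EC50 by four-parameter dose-response fitting.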

The subject of test [2] is H727 lung cancer cell lines (G12V K-Ras mutation). As to the kind of experiment: Inhibition of cancer cell proliferation (CellTiter-Glo). Type of test: cell-based. Conditions: Homo sapiens, NCI-H727, 72 h; H727 cells, 3 days treatment, CellTiter-Glo; read-out: Cell proliferation activity (H727 cancer cell line proliferation IC50). How it is done:
Compounds of the present invention were measured for their ability to kill H727 lung cancer cell lines, which contain a G12V K-Ras mutation. Cell proliferation experiments were conducted in 96-well plates. Cells were plated at 1000 cells/well, incubated overnight, followed by treatment with a dose range of compound for 3 days at 37° C. Cell proliferation was assessed using a CellTiter-Glo assay (Promega) according to the manufacturer's protocol. Data were normalized to DMSO control. IC50 values were determined using a four-parameter dose-response (variable slope) equation. These assays are performed in a manner analogous to the assay disclosed in: Burns, M. C.; Sun, Q.; Daniels, R. N.; Camper, D. V.; Kennedy, J. P.; Phan, J.; Olejniczak, E. O.; Lee, T.; Waterson, A. G.; Rossanese, O. W.; Fesik, S. W. “Approach for targeting Ras with small molecules that activate SOS-mediated nucleotide exchange” Proc. Natl. Acad. Sci. 2014; 11(9): 3401-3406. PMCID: PMC3948241.
(In general: In ATP-based viability assays light output follows the ATP content of the culture.)

For another test, the target named is T1, Son of Sevenless (SOS) (Homo sapiens, UniProt Q07889).
T1 sequence (Q07889 564-1049 limits assumed): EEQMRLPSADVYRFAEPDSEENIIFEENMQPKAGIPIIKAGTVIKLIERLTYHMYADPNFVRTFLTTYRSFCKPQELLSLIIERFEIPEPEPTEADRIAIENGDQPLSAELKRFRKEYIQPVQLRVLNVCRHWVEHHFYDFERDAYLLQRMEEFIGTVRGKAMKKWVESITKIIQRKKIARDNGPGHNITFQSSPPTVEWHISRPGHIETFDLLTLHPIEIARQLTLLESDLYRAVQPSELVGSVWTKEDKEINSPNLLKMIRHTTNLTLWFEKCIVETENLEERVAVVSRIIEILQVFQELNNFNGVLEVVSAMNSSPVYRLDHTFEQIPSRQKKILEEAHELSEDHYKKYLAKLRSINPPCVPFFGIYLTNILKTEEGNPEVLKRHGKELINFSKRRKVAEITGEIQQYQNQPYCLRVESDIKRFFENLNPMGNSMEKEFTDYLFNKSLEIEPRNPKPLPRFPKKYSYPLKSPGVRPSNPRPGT
As to the kind of experiment: Binding to SOS, fluorescence polarization anisotropy (FPA) probe displacement. Conditions: displacement of FITC-conjugated probe (Example 285), affinity calculated from IC50. The gist of the method:
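Test compounds were titrated against SOS pre-bound to a fluorescein-labelled probe, with anisotropy plotted versus compound concentration. Binding affinities were derived from IC50 values obtained by four-parameter dose-response fitting.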

Structures can show the parent of a compound that is named as a salt.

As a reminder, the EC50 is the concentration that produces a half-maximal response. Read a low EC50 as an effect from little substance. As usually defined, the Ki is a measure of affinity in units of concentration, obtained from inhibition or displacement.

Ras GEF SOS (Son of Sevenless), sequence (P01112 1-166 partner limits assumed, one chain of several): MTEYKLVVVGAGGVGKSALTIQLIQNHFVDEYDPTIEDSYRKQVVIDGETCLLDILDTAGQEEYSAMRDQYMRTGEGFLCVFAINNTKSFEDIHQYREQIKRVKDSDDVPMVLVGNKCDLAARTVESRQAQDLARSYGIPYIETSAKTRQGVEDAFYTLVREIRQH

Turning to `Cc1cc(-c2cccc3c2nc(N2CCNCC2)n3Cc2ccc(C(F)(F)F)cc2)nn1C` [Example 96, 4-(1,5-dimethyl-1H-pyrazol-3-yl)-2-(piperazin-1-yl)-1-(4-(trifluoromethyl)benzyl)-1H-benzo[d]imidazole], the EC50 in test [1] fell in the range of 1000 to 5000 nM. Further, the IC50 in test [2] fell in the range of 1000 to 5000 nM. In turn, `Nc1ccc(-c2cccc3c2nc(N2CCNCC2)n3Cc2ccc(C(F)(F)F)cc2)cc1` [Example 92, 4-(2-(piperazin-1-yl)-1-(4-(trifluoromethyl)benzyl)-1H-benzo[d]imidazol-4-yl)aniline] yielded an EC50 in test [1] of 1000 to 5000 nM. In addition, the IC50 in test [2] lay in the range of 1000 to 5000 nM. For `Cc1cc(-c2c(C)c(C)cc3c2nc(N2CCNCC2)n3Cc2ccc(F)c(Cl)c2)n(C)n1` [Example 286, 1-(3-chloro-4-fluorobenzyl)-4-(1,3-dimethyl-1H-pyrazol-5-yl)-5,6-dimethyl-2-(piperazin-1-yl)-1H-benzo[d]imidazole], the IC50 in test [2] fell in the range of 1000 to 5000 nM.

In test [1], `Cc1cc2c(nc(N3CCNCC3)n2Cc2ccc(F)c(C)c2)c(CNCC(C)C)n1` [Example 231, N-((1-(4-fluoro-3-methylbenzyl)-6-methyl-2-(piperazin-1-yl)-1H-imidazo[4,5-c]pyridin-4-yl)methyl)-2-methylpropan-1-amine] showed a concentration giving a half-maximal response (EC50) of 5000 to 30000 nM. Also, the Ki on Son of Sevenless (SOS) was over 5000 nM. For `Cc1cc2c(nc(N3CCNCC3)n2Cc2ccc(F)c(C)c2)c(-c2ccc(CN)cc2)n1` [Example 229, (4-(1-(4-fluoro-3-methylbenzyl)-6-methyl-2-(piperazin-1-yl)-1H-imidazo[4,5-c]pyridin-4-yl)phenyl)methanamine] the same measures were 1000 to 5000 nM and over 5000 nM.

`Cc1cnc2nc(NC3CCNC3)n(Cc3ccc(F)c(Cl)c3)c2c1` (centres unmarked) [Example 247, 1-(3-chloro-4-fluorobenzyl)-6-methyl-N-(pyrrolidin-3-yl)-1H-imidazo[4,5-b]pyridin-2-amine] came in with an EC50 in test [1] of 1000 to 5000 nM. In addition, the Ki at Son of Sevenless (SOS) is 1000 to 5000 nM.

`Cc1cc(Cn2c(NCCN)nc3c(N4CCC(N)CC4)cc(Cl)cc32)cc(C)c1F` [Example 298, N^1-(4-(4-aminopiperidin-1-yl)-6-chloro-1-(4-fluoro-3,5-dimethylbenzyl)-1H-benzo[d]imidazol-2-yl)ethane-1,2-diamine] registered an EC50 in test [1] of under 1000 nM. The Ki on Son of Sevenless (SOS) was under 500 nM. With `CC(C)Cn1nccc1-c1cc(Cl)cc2c1nc(N1CCNCC1)n2Cc1ccc(F)c(Cl)c1` [Example 174, 6-chloro-1-(3-chloro-4-fluorobenzyl)-4-(1-isobutyl-1H-pyrazol-5-yl)-2-(piperazin-1-yl)-1H-benzo[d]imidazole trifluoroacetate], the 50% effective concentration (EC50) in test [1] fell in the range of 1000 to 5000 nM. Also, at Son of Sevenless (SOS), the Ki is under 500 nM. In test [1], `Cc1cc(-c2ccccc2C)c2ncn(Cc3cc(C)c(F)c(C)c3)c2c1` [Example 142, 1-(4-fluoro-3,5-dimethylbenzyl)-6-methyl-4-(o-tolyl)-1H-benzo[d]imidazole] registered an EC50 of 30000 to 100000 nM. Moreover, at Son of Sevenless (SOS), the Ki was over 5000 nM. For `Cc1cc(-c2c(C)nn(C)c2C)c2nc(N3CCNCC3)n(Cc3ccc(F)c(Cl)c3)c2c1` [Example 121, 1-(3-chloro-4-fluorobenzyl)-6-methyl-2-(piperazin-1-yl)-4-(1,3,5-trimethyl-1H-pyrazol-4-yl)-1H-benzo[d]imidazole trifluoroacetate] the same measures were under 1000 nM and under 500 nM. For `CCN(CC)Cc1cc(Cl)cc2c1nc(N1CCNCC1)n2Cc1ccc(F)c(Cl)c1` [Example 136, N-((6-chloro-1-(3-chloro-4-fluorobenzyl)-2-(piperazin-1-yl)-1H-benzo[d]imidazol-4-yl)methyl)-N-ethylethanamine trifluoroacetate], the EC50 in test [1] was under 1000 nM. The Ki at Son of Sevenless (SOS) is 1000 to 5000 nM. The corresponding values for `Cc1cc(OCCN)c2nc(NCCN)n(Cc3cc(C)c(F)c(C)c3)c2c1` [Example 320, N^1-(4-(2-aminoethoxy)-1-(4-fluoro-3,5-dimethylbenzyl)-6-methyl-1H-benzo[d]imidazol-2-yl)ethane-1,2-diamine] are under 1000 nM and 500 to 1000 nM. The corresponding values for `Cc1cc(Cn2c(N3CCNCC3)nc3c(OC4CCNC4)cccc32)ccc1F` (centres unmarked) [Example 206, 1-(4-fluoro-3-methylbenzyl)-2-(piperazin-1-yl)-4-(pyrrolidin-3-yloxy)-1H-benzo[d]imidazole] are under 1000 nM and over 5000 nM. The corresponding values for `Cc1cc(Cn2c(N3CCNCC3)nc3c(CC(=O)O)cc(Cl)cc32)cc(C)c1F` [Example 310, 2-(6-chloro-1-(4-fluoro-3,5-dimethylbenzyl)-2-(piperazin-1-yl)-1H-benzo[d]imidazol-4-yl)acetic acid] are under 1000 nM and 500 to 1000 nM. Consider `CN(CCCO)Cc1cc(Cl)cc2c1nc(N1CCNCC1)n2Cc1ccc(F)c(Cl)c1` [Example 135, 3-(((6-chloro-1-(3-chloro-4-fluorobenzyl)-2-(piperazin-1-yl)-1H-benzo[d]imidazol-4-yl)methyl)(methyl)amino)propan-1-ol trifluoroacetate], for which the half-maximal effective concentration (EC50) in test [1] is under 1000 nM. Besides, the Ki at Son of Sevenless (SOS) is 1000 to 5000 nM. Turning to `Cc1cc2c(nc(N3CCNCC3)n2Cc2cc(C)c(F)c(C)c2)c(CCN)c1C` [Example 102, 2-(1-(4-fluoro-3,5-dimethylbenzyl)-5,6-dimethyl-2-(piperazin-1-yl)-1H-benzo[d]imidazol-4-yl)ethan-1-amine trifluoroacetate], in test [1], the EC50 lay within 1000 to 5000 nM. For the same compound, the Ki at Son of Sevenless (SOS) was over 5000 nM. Compound `Cc1cc(Cn2c(NCCN)nc3c(N4CCNCC4)cc(Cl)cc32)cc(C)c1F` [Example 299, N^1-(6-chloro-1-(4-fluoro-3,5-dimethylbenzyl)-4-(piperazin-1-yl)-1H-benzo[d]imidazol-2-yl)ethane-1,2-diamine] gave a concentration giving a half-maximal response (EC50) in test [1] of under 1000 nM. Moreover, at Son of Sevenless (SOS), the Ki was under 500 nM. For the compound `Cc1cc(Cn2c(N3CCNCC3)nc3c(OCCN4CCCC4)cccc32)ccc1F` [Example 208, 1-(4-fluoro-3-methylbenzyl)-2-(piperazin-1-yl)-4-(2-(pyrrolidin-1-yl)ethoxy)-1H-benzo[d]imidazole], the EC50 in test [1] was under 1000 nM. In addition, the Ki at Son of Sevenless (SOS) was over 5000 nM. The corresponding values for `Cc1cc(Cn2c(N3CCNCC3)nc3c(N(C)C)cc(Cl)cc32)cc(C)c1F` [Example 296, 6-chloro-1-(4-fluoro-3,5-dimethylbenzyl)-N,N-dimethyl-2-(piperazin-1-yl)-1H-benzo[d]imidazol-4-amine] are 1000 to 5000 nM and under 500 nM. For `Cc1cc(Cn2c(NCCN)nc3c(C4=CCNCC4)cc(Cl)cc32)cc(C)c1F` [Example 303, N^1-(6-chloro-1-(4-fluoro-3,5-dimethylbenzyl)-4-(1,2,3,6-tetrahydropyridin-4-yl)-1H-benzo[d]imidazol-2-yl)ethane-1,2-diamine] the same measures were under 1000 nM and under 500 nM. Turning to `Cc1cc(Cn2c(N3CCNCC3)nc3c(C4=CCNCC4)cc(Cl)cc32)cc(C)c1F` [Example 304, 6-chloro-1-(4-fluoro-3,5-dimethylbenzyl)-2-(piperazin-1-yl)-4-(1,2,3,6-tetrahydropyridin-4-yl)-1H-benzo[d]imidazole], the EC50 in test [1] was under 1000 nM. The Ki at Son of Sevenless (SOS) was under 500 nM. The corresponding values for `Cc1cc(Cn2c(NCC3CNC3)nc3c(C4=CCNCC4)cc(Cl)cc32)cc(C)c1F` [Example 302, N-(azetidin-3-ylmethyl)-6-chloro-1-(4-fluoro-3,5-dimethylbenzyl)-4-(1,2,3,6-tetrahydropyridin-4-yl)-1H-benzo[d]imidazol-2-amine] are under 1000 nM and 500 to 1000 nM. The corresponding values for `Fc1ccc(Cn2c(N3CCNCC3)nc3ccc(C4CC4)cc32)cc1Cl` [Example 62, 1-(3-chloro-4-fluorobenzyl)-6-cyclopropyl-2-(piperazin-1-yl)-1H-benzo[d]imidazole trifluoroacetate] are 5000 to 30000 nM and over 5000 nM.

The compound `NCCNc1nc2ccc(Cl)cc2n1Cc1ccc(F)c(Cl)c1` [Example 74, N^1-(6-chloro-1-(3-chloro-4-fluorobenzyl)-1H-benzo[d]imidazol-2-yl)ethane-1,2-diamine trifluoroacetate] gave an EC50 in test [1] of under 1000 nM. Moreover, at Son of Sevenless (SOS), the Ki was 500 to 1000 nM.
